Tests used:
C-PAE cells [1] = test: Annexin V-FITC apoptosis assay; assay type: cell-based, bovine; details: 5 μg/ml Arresten, 40 ng/ml TNFα
Method: Fifty thousand C-PAE cells were added to each well of a 6-well tissue culture plate in DMEM supplemented with 10% FBS for 12 hours. Fresh medium together and either 5 μg/ml Arresten or 40 ng/ml TNFα (positive control) was added at 2, 4 and 6 hour time points. Control wells received an equal of volume of PBS. Detached cells and adherent cells were pooled together and centrifuged at 1500 rpm. Cells were washed with binding buffer (Clontech, Palo Alto, Calif., USA), and phosphatidyl-serine (PS) externalization, an indicator of apoptosis, was measured by labeling with FITC-labeled annexin V (Clontech) according to manufacturer's instructions. Annexin-FITC labeled cells were counted using a FACStar Plus flow cytometer (Becton-Dickinson, Waltham, Mass., USA). For each treatment, 10,000 cells were counted and stored. […] Relative to controls, the percentage of annexin-V-stained (apoptotic) cells increased to about 27% at 2 hours, and near 20% at 4 and 6 hours for the positive control, TNFα. For Arresten-treated cells, the percentage of apoptotic cells was about 18% at 2 hours, and about 23% at 4 and 6 hours.
Annexin V-FITC Labeling. In order to establish apoptosis as the potential mode of action for Canstatin, Annexin V-FITC was used to label externalized phosphatidylserine (PS), to assess apoptotic cells. 0.5×10^6 C-PAE cells, PC-3, 786-O and HEK 293 cells were added to each well of a 6 well tissue culture plate in 10% FBS supplemented DMEM (BioWhittaker, Walkersville, Md., USA) overnight. The next day, fresh medium was added to all wells together with 40 ng/ml TNF-α (positive control) or 15 μg/ml Canstatin. Control cells received an equal volume of PBS. After 24 hours of treatment, medium containing detached cells was collected and attached cells were trypsinized and combined with detached cells and centrifuged at 3,000×g. Cells were then washed and phosphatidyl-serine externalization (an early apoptotic indicator) was measured by labeling with FITC-labeled annexin V (Clontech, Palo Alto, Calif., USA) according to the manufacturer's instructions. Annexin V-FITC-labeled cells were counted using a FAC Star Plus flow cytometer (Becton-Dickenson, Waltham, Mass., USA). For each treatment 15,000 cells were counted and stored in listmode.
C-PAE cells (0.5×10^6 per well) were seeded onto a 6-well plate in 10% FCS supplemented DMEM. The next day, fresh medium containing 10% FCS was added with either 80 ng/ml of TNF-α (positive control) or Tumstatin ranging from 0.02 to 20 μg/ml. Control cells received an equal volume of PBS. After 18 hours of treatment, medium containing floating cells was collected, and attached cells were trypsinized and centrifuged together with floating cells at 3,000×g. The cells were then washed in PBS and resuspended in binding buffer (10 mM HEPES/NaOH, pH 7.4, 140 mM NaCl, 2.5 mM CaCl2). Annexin V-FITC (Clontech, Palo Alto, Calif., USA) was added to a final concentration of 150 ng/ml, and the cells were incubated in the darkness for 10 minutes. The cells were washed again in PBS and resuspended in binding buffer. Annexin V-FITC labeled cells were counted using a FACStar Plus flow cytometer (Becton-Dickinson, Waltham, Mass., USA). For each treatment, 15,000 cells were counted and stored in listmode.
Apoptosis was measured by Annexin V-FITC assay, using the ApoAlert kit (Clontech, Palo Alto, Calif., USA). Propidium iodide was used to stain the nuclei of cells that had died by ways other than apoptosis.
The assay was performed as described above, by treating C-PAE cells with Tumstatin-44-131 for 18 hours. Control cells received PBS.

Caspase-3 in C-PAE cells [2] = test: Caspase-3 assay; assay type: cell-based, bovine; details: TNF-α 80 ng/ml
Method: Tumstatin also altered cell morphology of C-PAE cells as monitored by phase contrast microscopy. After treating cells with 20 μg/ml of Tumstatin in the presence of 10% FCS for 24 hours on fibronectin-coated plates, the typical morphological features of apoptotic cells, membrane blebbing, cytoplasmic shrinkage, and chromatin condensation could be observed. […] Caspase-3 assay: Caspase-3 (CPP32) is an intracellular protease activated at the early stage of apoptosis, and initiates cellular breakdown by degrading structural and DNA repair proteins (Casciola-Rosen, L. et al., 1996, J. Exp. Med. 183:1957-64; Salvesen, G. S. et al., 1997, Cell 91:443-46). The protease activity of Caspase-3 was measured spectrophotometrically by detection of the chromophore (p-nitroanilide) cleaved from the labeled substrate (DEVD-pNA). C-PAE cells or PC-3 cells (0.5×10^6 per well) were plated onto a 6-well plate precoated with fibronectin (10 μg/ml) in DMEM supplemented with 10% FCS, and incubated overnight. The next day, the medium was replaced with DMEM containing 2% FCS and then incubated overnight at 37° C. Then cells were then stimulated with bFGF (3 ng/ml) in DMEM supplemented with 2% FCS, and also containing either TNF-α (80 ng/ml, positive control) or Tumstatin (10 μg/ml), and incubated for 24 hours. Controls received PBS buffer. After 24 hours, the supernatant cells were collected, and attached cells were trypsinized and combined with the supernatant cells. Cells were counted and resuspended in cell lysis buffer (Clontech) at a concentration of 4×10^7 cells/ml. The rest of the protocol followed the manufacturer's instructions (Clontech). A specific inhibitor of Caspase-3, DEVD-fmk (Asp-Glu-Val-Asp-fluoromethyl ketone) was used to confirm the specificity of the assay. The absorbance was measured in a microplate reader (Bio-Rad, Hercules, Calif., USA) at 405 nm. The assay was repeated three times for each cell type.
Apoptosis was also evaluated by measuring Caspase-3 activity as described in Example 27, above. The results are shown in FIG. 35, which is a histogram showing Caspase-3 activity as a measure of absorbance at OD405 (y-axis) of C-PAE cells treated (x-axis) with 5 μg/ml Tum-1, Tum-2, Tum-3 or Tum-4, or 80 ng/ml TNF-α or PBS buffer (control).
Caspase-3 activity was also assayed as described above. DEVD-fmk, a specific caspase-3 inhibitor, was used as an internal control to show specificity of Tumstatin-44-131. TNF-α (80 ng/ml) was used as a positive control. The experiments were repeated three times.
The protease activity of Caspase-3 in cells treated with T3 peptide was measured spectrophotometrically by detection of the chromophore (p-nitroanilide) cleaved from the labeled substrate (DEVD-pNA). […] In PC-3 nonendothelial cells, there was no difference in Caspase-3 activity between control treatments and T3 peptide-treated cells.

Caspase-3 in C-PAE cells [3] = test: Caspase-3 assay; assay type: cell-based, bovine; details: 20 μg/ml Tumstatin; TNF-α positive control
PC-3 cells = test: MTT cell viability assay; assay type: cell-based, human; details: 0-50 μg/ml
Method: (§1) Cell viability was measured by MTT assay, as described above.
(§2) The effects of Tumstatin-44-131 and Tum-5-125-C-A on cell viability of C-PAE cells were not seen in control PC-3 and DU-145 cells, as shown in FIGS. 52C and 52D. […] The activity of Tumstatin-44-131 is therefore specific to endothelial cells.

DU-145 cells = test: MTT cell viability assay; assay type: cell-based; details: 0-50 μg/ml
Method: as §1, §2

Goodpasture autoantibody = test: Reactivity with Goodpasture autoantibody (western blotting); assay type: binding, human
Source text: Goodpasture syndrome is an autoimmune disease characterized by pulmonary hemorrhage and/or rapidly progressing glomerulonephritis, which are caused by the disruption of glomerular and alveolar basement membranes through immune injury associated with autoantibody activity against α3(IV) NC1. Recently, the most probable disease-related pathogenic epitope was identified in the N-terminal portion (Kalluri, R. et al., 1996, J. Biol. Chem. 271:9062-8; Hellmark, T. et al., 1999, Kidney Int. 55:938-44), and was then further confined within the N-terminal 40 amino acids (Hellmark, T. et al., 1999, J. Biol. Chem. 274:25862-8; Netzer, K. O. et al., 1999, J. Biol. Chem. 274:11267-74). The N-terminal Tumstatin-44-131 consists of residues 44-131 of Tumstatin, which is outside of the Goodpasture autoepitope. To further confirm that Tumstatin-44-131 would not be detected by Goodpasture autoantibody, antisera from patients with Goodpasture was used for western blotting.

C-PAE cells [4] = test: Cell cycle analysis (propidium iodide, flow cytometry); assay type: cell-based, bovine
Method: To further evaluate the mechanism of T3 peptide on endothelial cell proliferation, the effect of T3 peptide on cell cycle progression was analyzed. In the growth arrested and contact inhibited cells (0 hour), 4.1% of cells were in S phase. […] This was true even at a maximal dosage of 100 μg/ml. The effect of the T3 peptide was dose-dependent, however, with the percentage of cells in S phase at 21.4% at 10 μg/ml, and 20.5% at 25 μg/ml. The percentage of cells in G0/G1 phase was 88.3% at 0 hour, 53.4% for the bFGF control, and 57.6%, 57.6% and 71.0% for treatments with T1, T6 and T3 peptide, respectively. […] Apoptotic Activity: Peptides T2, T3, T4, T5 and T6 (10 μg/ml concentration) were tested for their effect of viability of C-PAE cells using the MTT assay, as described in Examples 32 and 36 above. The results are shown in FIG. 43D, which is a histogram showing cell viability as measured at OD595 (y-axis), and treatments with the synthetic peptides (x-axis). […] TNF-α (100 ng/ml) was used to serve as a positive control in inducing endothelial cell apoptosis.
The effect of Tumstatin-44-131 and Tum-5-125-C-A on the cell cycle were assayed similarly to Example 4 above. Briefly, C-PAE cells were growth arrested by contact inhibition for 48 hours. The cells, at 10^5 cells per well, were then harvested and plated into a 12-well plate coated with fibronectin in 5% FCS and either recombinant Tumstatin-44-131 or Tum-5-125-C-A. After 21 hours, the cells were harvested and fixed in 70% ice-cold ethanol. The fixed cells were rehydrated a room temperature for 30 minutes in PBS containing 2% FCS and 0.1% Tween-20, centrifuged and resuspended in 0.5 ml of the same buffer. RNase (5 μg/ml) digestion was done at 37° C. for one hour, followed by staining with propidium iodide (5 μg/ml). The cells were then counted using an EPICS XL-MCL flow cytometer (Beckman-Coulter Instruments, Fullerton, Calif., USA).

PC-3 tumors = test: PC-3 xenograft in athymic nude NCRNU mice (Example 46); assay type: in vivo; details: 1 mg/kg i.p. b.i.d., 20 days
Method: Tumstatin-44-131 was also tested for its ability to suppress tumor growth. Male athymic nude NCRNU mice, of 5-6 weeks of age and about 25 g, were implanted with […] approximately 2×10^6 PC-3 (prostate cancer carcinoma) cells into the dorsal subcutis. […] The tumors were allowed to grow to about 50 mm^3, and animals were then pair-matched into groups of 6 mice. Initial doses of protein or vehicle (PBS, control) were given on the day of pair-matching (Day 1). Tumstatin-44-131, Tum-5-125-C-A, or human endostatin in sterile PBS was intraperitoneally injected daily b.i.d. at doses ranging from 1 to 20 mg/kg for 20 days. Control animals received injection of PBS vehicle. In one treatment, continuous subcutaneous delivery of Tumstatin-44-131 was done using surgically implanted Alzet mini-pumps. The mice were weighed twice weekly, and tumor measurements were taken, starting on Day 1. Estimated mean tumor volumes were calculated, and at Day 21, the mice were weighed, sacrificed, and their tumors excised and examined by light microscopy and CD31 immunostaining. The mean treated tumor weight was divided by the mean control tumor weight was subtracted from one, and expressed as a percentage to give the tumor growth inhibition for each group.

Molecule: TNF-α [reference compound]
- percentage of annexin-V-stained (apoptotic) cells (C-PAE cells [1]; 4 and 6 hours): ~20%
- percentage of annexin-V-stained (apoptotic) cells (C-PAE cells [1]; 2 hours): about 27%
- fold increase in Caspase-3 activity (Caspase-3 in C-PAE cells [2]; 10 μg/ml E. Coli-expressed Tumstatin-44-131): 4.5 fold
- fold increase in Caspase-3 activity (Caspase-3 in C-PAE cells [2]; 50 μg/ml T3 peptide): 4.5 fold
- fold increase in Caspase-3 activity (Caspase-3 in C-PAE cells [3]): 1.7 fold

B1: Tum-5-125-C-A: Tumstatin-44-131 with cysteine at position 125 mutated to alanine (SEQ ID NO:34) (protein)
chain: FSFLFVQGNQRAHGQDLGTLGSCLQRFTTMPFLFCNVNDVCNFASRNDYSYWLSTPALMPMNMAPITGRALEPYISRCTVAEGPAIAI
modifications: Tumstatin-5-125-C-A (amino acids 45-132 of SEQ ID NO10; alanine has been substituted for the cysteine residue at position 125 of the full-length Tumstatin molecule)
- effect on viability of PC-3 cells (PC-3 cells): not seen
- effect on viability of DU-145 cells (DU-145 cells): not seen
- detection by antisera / autoantibodies from patients with Goodpasture syndrome (Goodpasture autoantibody): failed to detect
- cell cycle arrest compared with Tumstatin-44-131 (C-PAE cells [4]): equivalent to treatment with Tumstatin-44-131
- tumor growth inhibition (PC-3 tumors): 92.0%
